Test results from PubChem BioAssay (NCI).
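Where inhibition never reached the appropriate level, the endpoint shown equals the highest concentration tested. Otherwise, values were interpolated linearly from a five-concentration, 48-hour dose response in 96-well plates. The concentration for 50% growth inhibition is given as GI50. TGI: concentration producing complete growth inhibition.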

What was measured:
Test in all cases: growth of human tumour cells (NCI), 48 h
786-0 renal = system: 786-0 renal
A498 renal = system: A498 renal
A549 NSCLC = system: A549 NSCLC
ACHN renal = system: ACHN renal
BT-549 breast = system: BT-549 breast
CAKI-1 renal = system: CAKI-1 renal
CCRF-CEM leukemia = system: CCRF-CEM leukemia
COLO 205 colon = system: COLO 205 colon
DU-145 prostate = system: DU-145 prostate
EKVX NSCLC = system: EKVX NSCLC
HCC-2998 colon = system: HCC-2998 colon
HCT-116 colon = system: HCT-116 colon
HCT-15 colon = system: HCT-15 colon
HL-60(TB) leukemia = system: HL-60(TB) leukemia
HOP-62 NSCLC = system: HOP-62 NSCLC
HOP-92 NSCLC = system: HOP-92 NSCLC
HS 578T breast = system: HS 578T breast
HT29 colon = system: HT29 colon
IGROV1 ovarian = system: IGROV1 ovarian
K-562 leukemia = system: K-562 leukemia
KM12 colon = system: KM12 colon
LOX IMVI melanoma = system: LOX IMVI melanoma
M14 melanoma = system: M14 melanoma
MALME-3M melanoma = system: MALME-3M melanoma
MCF7 breast = system: MCF7 breast
MDA-MB-231 breast = system: MDA-MB-231 breast
MDA-MB-435 = system: MDA-MB-435
MOLT-4 leukemia = system: MOLT-4 leukemia
NCI-H226 lung = system: NCI-H226 lung
NCI-H23 lung = system: NCI-H23 lung
NCI-H460 lung = system: NCI-H460 lung
NCI-H522 lung = system: NCI-H522 lung
NCI/ADR-RES ovarian = system: NCI/ADR-RES ovarian
OVCAR-3 ovarian = system: OVCAR-3 ovarian
OVCAR-4 ovarian = system: OVCAR-4 ovarian
OVCAR-5 ovarian = system: OVCAR-5 ovarian
OVCAR-8 ovarian = system: OVCAR-8 ovarian
PC-3 prostate = system: PC-3 prostate
RPMI-8226 leukemia = system: RPMI-8226 leukemia
RXF 393 renal = system: RXF 393 renal
SF-268 CNS = system: SF-268 CNS
SF-295 CNS = system: SF-295 CNS
SF-539 CNS = system: SF-539 CNS
SK-MEL-2 melanoma = system: SK-MEL-2 melanoma
SK-MEL-28 melanoma = system: SK-MEL-28 melanoma
SK-MEL-5 melanoma = system: SK-MEL-5 melanoma
SK-OV-3 ovarian = system: SK-OV-3 ovarian
SN12C renal = system: SN12C renal
SNB-19 CNS = system: SNB-19 CNS
SNB-75 CNS = system: SNB-75 CNS
SR leukemia = system: SR leukemia
SW-620 colon = system: SW-620 colon
T-47D breast = system: T-47D breast
TK-10 renal = system: TK-10 renal
U251 CNS = system: U251 CNS
UACC-257 melanoma = system: UACC-257 melanoma
UACC-62 melanoma = system: UACC-62 melanoma
UO-31 renal = system: UO-31 renal

With CCN(CC)CCOc1ccc(/C=C2\CC3C4CC=C5C[C@@H](N6CCCC6)CC[C@]5(C)C4CC[C@]3(C)[C@H]2OC(C)=O)cc1OC (some centres undefined) the GI50 (786-0 renal) was 635 nM, the TGI (786-0 renal) was 1300 nM and the GI50 (A498 renal) was 1960 nM. For the same molecule, the TGI (A498 renal) was 3460 nM, the GI50 (A549 NSCLC) was 1640 nM and the TGI (A549 NSCLC) was 3670 nM. It also gave a GI50 (ACHN renal) of 791 nM, a TGI (ACHN renal) of 1560 nM and a GI50 (BT-549 breast) of 1800 nM. It also gave a TGI (BT-549 breast) of 3520 nM, a GI50 (CAKI-1 renal) of 1250 nM and a TGI (CAKI-1 renal) of 2990 nM. It also gave a GI50 (CCRF-CEM leukemia) of 197 nM, a TGI (CCRF-CEM leukemia) of 457 nM and a GI50 (COLO 205 colon) of 2040 nM. It also gave a TGI (COLO 205 colon) of 4280 nM, a GI50 (DU-145 prostate) of 1050 nM and a TGI (DU-145 prostate) of 6070 nM. It also gave a GI50 (EKVX NSCLC) of 1590 nM, a TGI (EKVX NSCLC) of 3470 nM and a GI50 (HCC-2998 colon) of 197 nM. It also gave a TGI (HCC-2998 colon) of 647 nM, a GI50 (HCT-116 colon) of 132 nM and a TGI (HCT-116 colon) of 548 nM. For the same molecule, the GI50 (HCT-15 colon) was 1080 nM, the TGI (HCT-15 colon) was 2450 nM and the GI50 (HL-60(TB) leukemia) was 639 nM. It also gave a TGI (HL-60(TB) leukemia) of 1770 nM, a GI50 (HOP-62 NSCLC) of 899 nM and a TGI (HOP-62 NSCLC) of 2270 nM. It also gave a GI50 (HOP-92 NSCLC) of 152 nM, a TGI (HOP-92 NSCLC) of 1880 nM and a GI50 (HS 578T breast) of 1030 nM. The TGI (HS 578T breast) was 2320 nM, the GI50 (HT29 colon) was 144 nM and the TGI (HT29 colon) was greater than 44100 nM. It also gave a TGI (IGROV1 ovarian) of 1730 nM, a TGI (K-562 leukemia) greater than 36000 nM and a GI50 (KM12 colon) of 99.7 nM. The TGI (KM12 colon) was 1160 nM, the GI50 (LOX IMVI melanoma) was 1030 nM and the TGI (LOX IMVI melanoma) was 2400 nM. For the same molecule, the GI50 (M14 melanoma) was 133 nM, the TGI (M14 melanoma) was 217 nM and the GI50 (MALME-3M melanoma) was 579 nM. It also gave a TGI (MALME-3M melanoma) of 1240 nM, a GI50 (MCF7 breast) of 1210 nM and a GI50 (MDA-MB-231 breast) of 1730 nM. The TGI (MDA-MB-231 breast) was 3250 nM, the GI50 (MDA-MB-435) was 277 nM and the TGI (MDA-MB-435) was 745 nM. It also gave a GI50 (MOLT-4 leukemia) of 91 nM, a TGI (MOLT-4 leukemia) of 345 nM and a GI50 (NCI-H226 lung) of 1260 nM. The TGI (NCI-H226 lung) was 3300 nM, the GI50 (NCI-H23 lung) was 1630 nM and the TGI (NCI-H23 lung) was 3320 nM. It also gave a GI50 (NCI-H460 lung) of 1600 nM, a TGI (NCI-H460 lung) of 4460 nM and a GI50 (NCI-H522 lung) of 2350 nM. The GI50 (NCI/ADR-RES ovarian) was 570 nM, the TGI (NCI/ADR-RES ovarian) was 1930 nM and the GI50 (OVCAR-3 ovarian) was 773 nM. The TGI (OVCAR-3 ovarian) was 1840 nM, the GI50 (OVCAR-4 ovarian) was 2140 nM and the TGI (OVCAR-4 ovarian) was 5650 nM. It also gave a GI50 (OVCAR-5 ovarian) of 1390 nM, a TGI (OVCAR-5 ovarian) of 3060 nM and a GI50 (OVCAR-8 ovarian) of 1070 nM. The TGI (OVCAR-8 ovarian) was 3470 nM, the GI50 (PC-3 prostate) was 1130 nM and the TGI (PC-3 prostate) was 2510 nM. For the same molecule, the GI50 (RPMI-8226 leukemia) was 124 nM, the TGI (RPMI-8226 leukemia) was 5240 nM and the GI50 (RXF 393 renal) was 815 nM. The TGI (RXF 393 renal) was 2770 nM, the GI50 (SF-268 CNS) was 1860 nM and the TGI (SF-268 CNS) was 4560 nM. It also gave a GI50 (SF-295 CNS) of 1550 nM, a TGI (SF-295 CNS) of 2950 nM and a GI50 (SF-539 CNS) of 597 nM. The TGI (SF-539 CNS) was 1200 nM, the GI50 (SK-MEL-2 melanoma) was 3450 nM and the TGI (SK-MEL-2 melanoma) was greater than 100000 nM. The GI50 (SK-MEL-28 melanoma) was 1710 nM, the TGI (SK-MEL-28 melanoma) was 3560 nM and the GI50 (SK-MEL-5 melanoma) was 720 nM. For the same molecule, the TGI (SK-MEL-5 melanoma) was 1390 nM, the GI50 (SK-OV-3 ovarian) was 2400 nM and the TGI (SK-OV-3 ovarian) was 6060 nM. The GI50 (SN12C renal) was 1190 nM, the TGI (SN12C renal) was 2640 nM and the GI50 (SNB-19 CNS) was 698 nM. It also gave a TGI (SNB-19 CNS) of 3470 nM, a GI50 (SNB-75 CNS) of 2210 nM and a TGI (SNB-75 CNS) of 5100 nM. It also gave a GI50 (SR leukemia) of 191 nM, a TGI (SR leukemia) of 444 nM and a GI50 (SW-620 colon) of 555 nM. It also gave a TGI (SW-620 colon) of 1920 nM, a GI50 (T-47D breast) of 1030 nM and a TGI (T-47D breast) of 2210 nM. The GI50 (TK-10 renal) was 1240 nM, the TGI (TK-10 renal) was 2670 nM and the GI50 (U251 CNS) was 1180 nM. The TGI (U251 CNS) was 2440 nM, the GI50 (UACC-257 melanoma) was 1910 nM and the TGI (UACC-257 melanoma) was 3920 nM. It also gave a GI50 (UACC-62 melanoma) of 715 nM, a TGI (UACC-62 melanoma) of 1410 nM and a GI50 (UO-31 renal) of 2280 nM.
CC(=O)OCC1OC(n2c(-c3cccs3)c3c(c(C#N)c2=S)-c2ccccc2CC3)C(OC(C)=O)C(OC(C)=O)C1OC(C)=O (centres undefined) gave a TGI (786-0 renal) of 58500 nM, a TGI (A498 renal) of 40900 nM and a TGI (A549 NSCLC) greater than 87100 nM. The TGI (ACHN renal) was greater than 64000 nM, the TGI (BT-549 breast) was greater than 55600 nM and the TGI (CAKI-1 renal) was 64700 nM. For the same molecule, the TGI (CCRF-CEM leukemia) was greater than 83600 nM, the TGI (COLO 205 colon) was 32900 nM and the TGI (DU-145 prostate) was greater than 100000 nM. It also gave a TGI (EKVX NSCLC) of 70900 nM, a TGI (HCC-2998 colon) of 33500 nM and a TGI (HCT-116 colon) greater than 50400 nM. For the same molecule, the TGI (HCT-15 colon) was greater than 56800 nM, the TGI (HL-60(TB) leukemia) was greater than 28100 nM and the TGI (HOP-62 NSCLC) was greater than 65400 nM. For the same molecule, the TGI (HOP-92 NSCLC) was 29900 nM, the TGI (HS 578T breast) was 70300 nM and the TGI (HT29 colon) was 27200 nM. It also gave a TGI (IGROV1 ovarian) greater than 75100 nM, a TGI (K-562 leukemia) greater than 100000 nM and a TGI (KM12 colon) greater than 50200 nM. It also gave a TGI (LOX IMVI melanoma) of 22500 nM, a TGI (M14 melanoma) greater than 50800 nM and a TGI (MALME-3M melanoma) greater than 51800 nM. It also gave a TGI (MCF7 breast) of 49200 nM, a TGI (MDA-MB-231 breast) of 87900 nM and a TGI (MDA-MB-435) of 9090 nM. For the same molecule, the TGI (MOLT-4 leukemia) was greater than 37700 nM, the TGI (NCI-H226 lung) was greater than 56700 nM and the TGI (NCI-H23 lung) was greater than 56600 nM. The TGI (NCI-H460 lung) was greater than 45800 nM, the TGI (NCI-H522 lung) was 34000 nM and the TGI (NCI/ADR-RES ovarian) was greater than 70800 nM. It also gave a TGI (OVCAR-3 ovarian) of 43100 nM, a TGI (OVCAR-4 ovarian) greater than 95700 nM and a TGI (OVCAR-5 ovarian) greater than 100000 nM. For the same molecule, the TGI (OVCAR-8 ovarian) was greater than 46600 nM, the TGI (PC-3 prostate) was greater than 65300 nM and the TGI (RPMI-8226 leukemia) was 17000 nM. For the same molecule, the TGI (RXF 393 renal) was 29300 nM, the TGI (SF-268 CNS) was greater than 64400 nM and the TGI (SF-295 CNS) was greater than 55800 nM. For the same molecule, the TGI (SF-539 CNS) was greater than 49300 nM, the TGI (SK-MEL-2 melanoma) was 31500 nM and the TGI (SK-MEL-28 melanoma) was greater than 59200 nM. It also gave a TGI (SK-MEL-5 melanoma) of 23000 nM, a TGI (SK-OV-3 ovarian) greater than 100000 nM and a TGI (SN12C renal) greater than 100000 nM. For the same molecule, the TGI (SNB-19 CNS) was greater than 100000 nM, the TGI (SNB-75 CNS) was 26700 nM and the TGI (SR leukemia) was greater than 29800 nM. It also gave a TGI (SW-620 colon) greater than 63400 nM, a TGI (T-47D breast) of 42800 nM and a TGI (TK-10 renal) greater than 30200 nM. For the same molecule, the TGI (U251 CNS) was greater than 53800 nM, the TGI (UACC-257 melanoma) was greater than 55400 nM and the TGI (UACC-62 melanoma) was 43100 nM. For the same molecule, the TGI (UO-31 renal) was 20600 nM.
